Molecules are shown by their SMILES.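 Protocol summary: plate cells (96-well), add compound at 5 concentrations, incubate 48 h, interpolate endpoints linearly. GI50 is the concentration that inhibits growth by half.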 Calls of active or inactive are those of the source. Cut-off read from the data, not from the text of the source: active = GI50 up to about 1.1 µM and inactive = higher. Square brackets hold non-standard residues; d marks the D form. Peptide text beside a SMILES is read from it. pGlu = O=C1CC[CH](C(=O)O)N1

Some test systems named below: OVCAR-3; RXF 393; HCC 2998; UO-31; HOP-62; MOLT-4; SNB-75; TK-10; HOP-92; SN12C; IGROV-1; ACHN; LOX IMVI; SF-539; Malme-3M; NCI-H226; U-251; M14; NCI-H460; SK-OV-3.
Holding throughout (test): NCI tumour cell line growth inhibition, 48 h

`CCN1C(c2ccccc2)=CC(c2ccccc2)(C(Cl)(Cl)Cl)C=C1c1ccccc1`: the GI50 with OVCAR-3 is 7 µM (inactive); with RXF 393, 17.5 µM (inactive); with HCC 2998, 3.04 µM (inactive); with UO-31, 34.6 µM (inactive); with HOP-62, 18.9 µM (inactive); in the experiment on MOLT-4 it was 10.9 µM (inactive). Besides, the GI50 was 5.06 µM (inactive) with SNB-75; 17.7 µM (inactive) with TK-10; 3.11 µM (inactive) in the experiment on HOP-92; 45.3 µM (inactive) in the experiment with SN12C; 4.7 µM (inactive) in the experiment with IGROV-1; 24.9 µM (inactive) in the experiment on ACHN. In addition, the GI50 in the experiment on LOX IMVI was 8.45 µM (inactive); in the experiment with SF-539, 15.6 µM (inactive); with Malme-3M, 4.5 µM (inactive); in the experiment on NCI-H226 it was 19.2 µM (inactive); with U-251 it was 6.01 µM (inactive); with M14 it was 4.35 µM (inactive). In addition, the GI50 in the experiment with NCI-H460 is 7.5 µM (inactive).

On to `CC1=NN(c2nc(N)nc(CN3CCOCC3)n2)C(C)(C)C1`, for which the GI50 was > 100 µM (inactive) in the experiment on OVCAR-3; > 100 µM (inactive) in the experiment with SK-OV-3; > 100 µM (inactive) in the experiment on RXF 393; > 100 µM (inactive) with HCC 2998; 18.1 µM (inactive) in the experiment on UO-31; 46.2 µM (inactive) in the experiment with HOP-62. For the same compound, the GI50 with MOLT-4 is > 100 µM (inactive); in the experiment on SNB-75, > 100 µM (inactive); with TK-10 it was > 100 µM (inactive); in the experiment with HOP-92, 33.2 µM (inactive); in the experiment with SN12C, > 100 µM (inactive); in the experiment with IGROV-1, 16.9 µM (inactive). Besides, the GI50 was 31.8 µM (inactive) in the experiment on ACHN; 14.9 µM (inactive) in the experiment with LOX IMVI; > 100 µM (inactive) in the experiment with SF-539; > 100 µM (inactive) in the experiment on NCI-H226; > 100 µM (inactive) in the experiment on U-251; > 100 µM (inactive) in the experiment on M14. Besides, in the experiment on NCI-H460, the GI50 is > 100 µM (inactive).

As for `COC(=O)C(NC(=O)CNC(=O)CSc1nnc(COc2ccc(Cl)cc2)n1-c1ccccc1)C(C)C` (centres undefined), the GI50 in the experiment with OVCAR-3 was 17.3 µM (inactive); in the experiment with RXF 393 it was 18.1 µM (inactive); with HCC 2998, 18.5 µM (inactive); in the experiment on UO-31, 17.8 µM (inactive); in the experiment with HOP-62, 26.5 µM (inactive); in the experiment on MOLT-4 it was 22.3 µM (inactive). For the same compound, the GI50 is 21.3 µM (inactive) in the experiment on SNB-75; 16.9 µM (inactive) with TK-10; 20.8 µM (inactive) with HOP-92; 18.4 µM (inactive) in the experiment with SN12C; 18.8 µM (inactive) in the experiment with IGROV-1; 18 µM (inactive) with ACHN. The GI50 in the experiment on LOX IMVI was 19.6 µM (inactive); with SF-539 it was 17.1 µM (inactive); in the experiment on Malme-3M, 18.4 µM (inactive); in the experiment on NCI-H226, 19.1 µM (inactive); in the experiment with U-251, 18.3 µM (inactive); with M14, 18.7 µM (inactive). For the same compound, the GI50 with NCI-H460 is 18.8 µM (inactive).

On to `CC(NC(=O)C(Cc1c[nH]cn1)NC(=O)C1CCC(=O)N1)C(N)=O` (stereo not drawn) ([pGlu]-His-Ala-NH2; configuration not given here), for which the GI50 with OVCAR-3, with SK-OV-3, in the experiment on RXF 393, with HCC 2998, in the experiment with UO-31 and in the experiment with HOP-62 was > 100 µM (inactive) in each case. Besides, the GI50 in the experiment on MOLT-4, in the experiment with SNB-75, in the experiment on TK-10, in the experiment on HOP-92, in the experiment with SN12C and in the experiment on IGROV-1 was > 100 µM (inactive) throughout. Moreover, the GI50 with ACHN, in the experiment with LOX IMVI, with Malme-3M, in the experiment with NCI-H226, in the experiment on U-251 and in the experiment on M14 was > 100 µM (inactive) throughout. Besides, in the experiment with NCI-H460, the GI50 is > 100 µM (inactive).

Regarding `Cc1[nH]n(C(=N)N)c(=O)c1CCO`, the GI50 with OVCAR-3, in the experiment with SK-OV-3, with RXF 393, in the experiment with HCC 2998, in the experiment with UO-31 and in the experiment on HOP-62 was > 100 µM (inactive) each time. For the same compound, the GI50 in the experiment on SNB-75, in the experiment on TK-10, in the experiment on HOP-92, with SN12C, in the experiment with IGROV-1 and in the experiment with ACHN was > 100 µM (inactive) throughout. Also, the GI50 with LOX IMVI, in the experiment on SF-539, with Malme-3M, in the experiment with NCI-H226, in the experiment on U-251 and in the experiment with M14 was > 100 µM (inactive) each time. For the same compound, the GI50 with NCI-H460 is > 100 µM (inactive).

With `O=C1C(Br)=C(Br)C(=O)c2c(O)ccc(O)c21`, the GI50 with OVCAR-3 is 5.85 µM (inactive); with SK-OV-3, 20 µM (inactive); in the experiment on RXF 393, 2.65 µM (inactive); in the experiment on HCC 2998 it was 19.8 µM (inactive); in the experiment with UO-31 it was 2.79 µM (inactive); in the experiment on HOP-62, 9.38 µM (inactive). Further, the GI50 with MOLT-4 is 0.0733 µM (active); in the experiment on SNB-75, 18.8 µM (inactive); with TK-10, 2.27 µM (inactive); with HOP-92 it was 2.11 µM (inactive); in the experiment on SN12C it was 7.66 µM (inactive); with IGROV-1, 14.7 µM (inactive). Further, the GI50 with ACHN was 2.48 µM (inactive); in the experiment on SF-539, 15.9 µM (inactive); in the experiment with Malme-3M, 1.45 µM (inactive); in the experiment on NCI-H226, 28.4 µM (inactive); with U-251, 16.4 µM (inactive); with M14 it was 1.85 µM (inactive). Also, in the experiment with NCI-H460, the GI50 was 16.3 µM (inactive).

As to `CCCCCCCCCCCC(=O)OCCOCCOCCOCCOCCOC(=O)CCCCCCCCCCC`, the GI50 in the experiment with OVCAR-3, with SK-OV-3, with RXF 393, in the experiment with HCC 2998, with UO-31 and with HOP-62 was > 100 µM (inactive) in each case. For the same compound, the GI50 in the experiment on MOLT-4, with SNB-75, in the experiment with TK-10, in the experiment on HOP-92, with SN12C and in the experiment on IGROV-1 was > 100 µM (inactive) throughout. The GI50 in the experiment with ACHN, with LOX IMVI, in the experiment with Malme-3M, in the experiment with NCI-H226, in the experiment on U-251 and in the experiment on M14 was > 100 µM (inactive) each time. Further, in the experiment on NCI-H460, the GI50 is > 100 µM (inactive).

For the compound `C=CCN1C(=O)/C(=C/c2ccc(C)cc2)NC1=S`, the GI50 in the experiment on OVCAR-3, in the experiment on SK-OV-3, in the experiment on RXF 393, in the experiment with HCC 2998, with UO-31 and with HOP-62 was > 100 µM (inactive) in each case. Besides, the GI50 in the experiment on MOLT-4 was 27.1 µM (inactive); in the experiment with SNB-75, > 100 µM (inactive); in the experiment with TK-10 it was > 100 µM (inactive); with HOP-92, 59.3 µM (inactive); with SN12C it was > 100 µM (inactive); in the experiment with IGROV-1 it was > 100 µM (inactive). The GI50 in the experiment with ACHN is > 100 µM (inactive); with LOX IMVI, 63.2 µM (inactive); in the experiment on SF-539, > 100 µM (inactive); with NCI-H226, 88.3 µM (inactive); in the experiment with U-251 it was > 100 µM (inactive); with M14 it was 87.7 µM (inactive). In addition, in the experiment on NCI-H460, the GI50 is > 100 µM (inactive).

As to `CCOC(=O)Cc1csc(Nc2ccc(OCC)cc2)n1`, the GI50 is 86.3 µM (inactive) with OVCAR-3; > 100 µM (inactive) in the experiment on RXF 393; > 100 µM (inactive) in the experiment on HCC 2998; > 100 µM (inactive) in the experiment with UO-31; > 100 µM (inactive) with HOP-62; 61.8 µM (inactive) in the experiment with MOLT-4. Further, the GI50 with SNB-75 is 40.4 µM (inactive); with TK-10 it was > 100 µM (inactive); in the experiment on HOP-92, 47.4 µM (inactive); in the experiment on SN12C, > 100 µM (inactive); with IGROV-1 it was > 100 µM (inactive); with ACHN, > 100 µM (inactive). The GI50 with SF-539, in the experiment on Malme-3M, with NCI-H226, in the experiment on U-251 and in the experiment on NCI-H460 was > 100 µM (inactive) in each case.

On to `O=c1cccccc1O` [TROPOLONE], for which the GI50 is 34 µM (inactive) with OVCAR-3; > 100 µM (inactive) with SK-OV-3; 26.5 µM (inactive) with RXF 393; 79.8 µM (inactive) in the experiment with HCC 2998; 80.2 µM (inactive) in the experiment with UO-31; 26.9 µM (inactive) with MOLT-4. In addition, the GI50 with SNB-75 was > 100 µM (inactive); with TK-10 it was 83.9 µM (inactive); in the experiment with HOP-92, > 100 µM (inactive); in the experiment with IGROV-1, > 100 µM (inactive); in the experiment on ACHN, > 100 µM (inactive); with LOX IMVI it was 34.7 µM (inactive). The GI50 with Malme-3M is > 100 µM (inactive); in the experiment with NCI-H226, > 100 µM (inactive); with M14, > 100 µM (inactive); in the experiment with NCI-H460 it was 26.5 µM (inactive).

Consider `Brc1ccc(-c2ccc(-c3ccc(Br)s3)s2)s1`, for which the GI50 in the experiment on OVCAR-3, in the experiment on SK-OV-3, in the experiment on RXF 393, in the experiment on HCC 2998, in the experiment with UO-31 and in the experiment on HOP-62 was > 100 µM (inactive) each time. For the same compound, the GI50 in the experiment with MOLT-4, in the experiment with SNB-75, in the experiment on TK-10, with HOP-92, in the experiment on SN12C and with IGROV-1 was > 100 µM (inactive) each time. The GI50 in the experiment on ACHN, in the experiment with LOX IMVI, in the experiment with SF-539, in the experiment with NCI-H226, in the experiment with U-251 and in the experiment on M14 was > 100 µM (inactive) in each case. Besides, the GI50 in the experiment on NCI-H460 was > 100 µM (inactive).

The values are drawn from ChEMBL document CHEMBL1201862, “PubChem BioAssay data set” (2004).
